Results from US20130152227A1, “ENHANCED DISEASE […] INTRODUCTION OF NH3” (priority 2010, published 2013).
Like-named read-outs stand apart in the source and are kept apart here.

Columns and labels:
NH1 = experiment: RT-PCR / real-time qPCR of NH1 after foliar spray; format: in vivo, Oryza sativa L; settings: 1 mM BTH
Excerpt: (§1) To investigate the BTH- and INA-induced responses at the molecular level, we looked at the transcript expression levels of several rice defense-related genes, including PR1a, PR3, PR10, POX (peroxidase), and NH1. RT-PCR results of these genes for response to BTH treatment are shown in FIG. 5a and real-time quantitative PCR results in FIG. 5b. The input cDNA amounts were equalized first by using actin as the reference in FIG. 5a. Quantitative expression data in FIG. 5b are expressed as fold of actin gene expression. As expected, the NH3 levels in the nNT-NH3 plants (filled bar) are elevated by about 3- to 4-fold compared to Kit (open bar) control before treatment. […] Mock treatment appears also has effects on the NH3 levels.
(§2) For 10 mM BTH treatment, the commercial product Actigard (Syngenta) was first used for foliar spray on the rice plants. Pure BTH chemical […] (Wako) was subsequently used in place of Actigard. One mM of BTH and INA solutions were prepared in 0.05% Tween 20 for foliar spray.
(§3) Leaf samples were collected and frozen immediately in liquid nitrogen. Leaf samples were stored at −80° C. until use. Total RNA was extracted using the Trizol reagent (Sigma) according to the manufacturer's instruction. RNA was reverse-transcribed using reverse transcriptase Superscript (Invitrogen). Approximately 10 μg of RNA was used for each reverse transcription. RT-PCR was first performed with primers targeting an actin gene as the reference. An equal amount of cDNA input was then used for RT-PCR for NH3 or defense-related genes. RT-PCR for NH3 used primers NH3-RT1 (5′[…]3′; SEQ ID NO:29) and NH3-RT2 (5′[…]3; SEQ ID NO:30). RT-PCR for NTAP-NH3 used primers NH3-2 (5′[…]3; SEQ ID NO:31) and NTAP-5 (5′[…]3; SEQ ID NO:32). RT-PCR for NH1 used primers NH1-RT1 (5′[…]3; SEQ ID NO:33) and NH1-TAP2 (5′[…]3; SEQ ID NO:34). Genes PR1a (Os07g03710) and PR10 (Os12g36830) as markers for plants defense have been described before (Park et al., 2008).
(§4) Quantitative real time PCR were performed on a Bio-Rad CFX96 Real-Time System coupled to a C1000 Thermal Cycler (Bio-Rad). […]

NH3 = experiment: RT-PCR / real-time qPCR of NH3 after foliar spray; format: in vivo, Oryza sativa L
Excerpt: as §1, §2, §3, §4

[1] = tested on: peroxidase genes POX8.1 and POX22.3; experiment: RT-PCR / real-time qPCR of peroxidase genes after foliar spray; format: in vivo, Oryza sativa L
Excerpt: as §1, §2, §3, §4

PR10 = experiment: RT-PCR / real-time qPCR of PR10 after foliar spray; format: in vivo, Oryza sativa L
Excerpt: as §1, §2, §3
Quantitative real time PCR were performed on a Bio-Rad CFX96 Real-Time System coupled to a C1000 Thermal Cycler (Bio-Rad). For qPCR reactions, the Bio-Rad SsoFast EvaGreen Supermix was used. QPCR primers used are as follows: Actin-Q1 ([…]; SEQ ID NO:35) and Actin-Q2 ([…]; SEQ ID NO:36) for actin gene; NH1-RT3 (CTGATCCGTTTCCCTCGGA; SEQ ID NO:37) and NH1-RT4 ([…]; SEQ ID NO:38) for the NH1 gene; NH3-RT3 ([…]; SEQ ID NO:39) and NH3-RT4 ([…]; SEQ ID NO:40) for the NH3 gene; PR3-1 ([…]; SEQ ID NO:41) and PR3-2 ([…]; SEQ ID NO:42) for the PR3 gene; POX8.1-1 ([…]; SEQ ID NO:43) and POX8.1-2 (CATGGGCTTCCTGATCTG; SEQ ID NO:44) for the POX8.1 gene; and POX22.3-1 (ATCGTGTCGACGACGACAT; SEQ ID NO:45) and POX22.3-2 ([…]; SEQ ID NO:46) for the POX22.3 gene. QPCR reactions were run at 56° C. annealing for 12 sec and 95° C. for 8 sec for 40 cycles.

[2] = tested on: rice plants (nNT-NH3, NTAP control, Kit); settings: for lesion mimic spots / bleached areas on leaves: 1 mM foliar spray, one week
PR3 = experiment: RT-PCR / real-time qPCR of PR3 after foliar spray; format: in vivo, Oryza sativa L; settings: for PR3 expression induction: 1 mM BTH
Excerpt: as §1, §2, §3, §4

PR1a = experiment: RT-PCR / real-time qPCR of PR1a after foliar spray; format: in vivo, Oryza sativa L; settings: 1 mM INA, Kit plants
Excerpt: as §1, §2
Leaf samples were collected and frozen immediately in liquid nitrogen. Leaf samples were stored at −80° C. until use. Total RNA was extracted using the Trizol reagent (Sigma) according to the manufacturer's instruction. […]
as §4

[3] = 1 mM BTH, both Kit and nNT-NH3 plants

c1ccc2snnc2c1 [BTH, benzothiadiazole]
NH1 expression levels (NH1; Kit plants): relatively unchanged | NH1 level induction compared to untreated Kit (NH1; nNT-NH3 plants, one day after treatment): 2 fold | NH1 level induction (NH1; nNT-NH3 plants, one day after treatment, vs untreated nNT-NH3): about 3.5 fold | NH3 transcript levels (NH3; 1 mM BTH, Kit control plants, especially day 4 and day 8): slightly reduced | NH3 levels (NH3; 1 mM BTH, nNT-NH3 plants): further modestly induced at day 1 | POX8.1 expression [1, 3]: significantly induces | POX22.3 expression [1, 3]: significantly induces | PR10 expression induction (PR10; 1 mM BTH, Kit plants): up to 2 fold | PR10 expression induction over untreated Kit (PR10; 1 mM BTH, nNT-NH3 plants): ≤ 12 fold | PR10 expression induction over untreated nNT-NH3 (PR10; 1 mM BTH, nNT-NH3 plants): up to 51 fold | lesion mimic spots / bleached areas on leaves ([2]; Kit control plants): developed no lesion mimic spots at all | cell death phenotype ([2]; 10 mM foliar spray, NTAP control plants (Ubi-1 promoter)): completely clear of such cell death phenotype | time to dry-out of whole leaves ([2]; 10 mM foliar spray, nNT-NH3 plants): 3 to 4 days | PR3 expression induction (PR3; Kit plants): up to 2 fold | PR3 expression induction (PR3; nNT-NH3 plants): up to 10 fold

O=C(O)c1cc(Cl)nc(Cl)c1 [INA, 2,6-dichloroisonicotinic acid]
levels of NH3 expression (NH3; 1 mM INA): slightly reduces | POX expression ([1]; 1 mM INA, Kit and nNT-NH3 plants): induces | PR1a expression (PR1a): slightly induces | PR10 expression (PR10; 1 mM INA, Kit plants): slightly induces | lesion mimic spots / bleached areas on leaves ([2]; Kit control plants): little effects | lesion mimic spots / bleached areas on leaves ([2]; nNT-NH3 plants): developed typical lesion-mimic spots, but no bleached areas on leaves | PR3 expression (PR3; 1 mM INA, Kit plants): slightly induces
